Assay results as given in paper PMC4394546, “Discovery of Benzo[f]indole-4,9-dione Derivatives as New Types of Anti-Inflammatory Agents” (International Journal of Molecular Sciences, 2015).

Tests used:
[1] = In vitro cytotoxicity against SF-268 cells; format: cell-based; settings: human, SF-268 CNS cancer cells; 4 μg/mL; read-out: Cytotoxicity (% survival rate), SF-268
Description: (§1) These benzo[f]indole-4,9-dione derivatives were evaluated in vitro against a panel of cell lines consisting of MCF7 (breast), NCI-H460 (lung), and SF-268 (CNS) as described previously. […] Results from Table 2 indicated compounds 15 and 16 were cytotoxic and their IC50 against three cancer cells and a normal cell, Detroit 551, were shown in Table 3.

SF-268 (CNS) = assay: In vitro cytotoxicity against SF-268 cells; format: cell-based; settings: Homo sapiens, SF-268; mean ± standard deviation, three experiments
Description: as §1

[2] = In vitro cytotoxicity against MCF7 cells; format: cell-based; settings: human, MCF7 breast cancer cells; 4 μg/mL; read-out: Cytotoxicity (% survival rate), MCF7
Description: as §1

MCF7 (breast) = assay: In vitro cytotoxicity against MCF7 cells; format: cell-based; settings: Homo sapiens, MCF7; mean ± standard deviation, three experiments
Description: as §1

[3] = In vitro cytotoxicity against NCI-H460 cells; format: cell-based; settings: human, NCI-H460 lung cancer cells; 4 μg/mL; read-out: Cytotoxicity (% survival rate), NCI-H460
Description: as §1

NCI-H460 (lung) = assay: In vitro cytotoxicity against NCI-H460 cells; format: cell-based; settings: Homo sapiens, NCI-H460; mean ± standard deviation, three experiments
Description: as §1

Detroit 551 = assay: In vitro cytotoxicity against normal cell Detroit 551; format: cell-based; settings: Homo sapiens, mean ± standard deviation, three experiments
Description: as §1

[4] = system: LPS-induced PGE2 production; set-up: method as in PMID 22161217; settings: read-out: Inhibition of LPS-induced PGE2 production, IC50; cited from earlier work
[5] = system: LPS-induced Raw 264.7 cells; set-up: method as in PMID 23232148; settings: cited from earlier work
[6] = system: LPS-induced Raw 264.7 cells; set-up: method as in PMID 23232148; settings: cited from earlier work; remark: listed apart in the source
K562 cell = system: K562 cell; set-up: method as in PMID 20591678; settings: read-out: IC50 against the growth of K562 cell; cited from earlier work
[7] = system: fMLF-activated human neutrophils; assay: Neutrophil elastase release in fMLF-activated human neutrophils; format: cell-based; settings: for IC50: Homo sapiens, Neutrophil, fMLF-activated human neutrophils, mean ± SEM (n = 3), read-out: Elastase Release (IC50, concentration necessary for 50% inhibition)
Description: (§2) Blood was taken from healthy human donors (20–30 years old) by venipuncture, using a protocol approved by the institutional review board at Chang Gung Memorial Hospital. Neutrophils were isolated with a standard method of dextran sedimentation prior to centrifugation in a Ficoll Hypaque gradient and hypotonic lysis of erythrocytes.
(§3) Superoxide generation and elastase release were carried out according to the procedures described previously. Neutrophils (6 × 10^5/mL) were equilibrated at 37 °C for 2 min and incubated with compounds for 5 min. Neutrophils were then activated by fMLF (100 nM) in the pretreatment of cytochalasin B (1 μg/mL for superoxide generation and 0.5 μg/mL for elastase release) for 10 min. Superoxide anion production was assayed by monitoring the superoxide dismutase-inhibitable reduction of ferricytochrome c. Elastase release was performed using MeO-Suc-Ala-Ala-Pro-Valp-nitroanilide as the elastase substrate.

[8] = system: fMLF-activated human neutrophils; assay: Superoxide anion generation in fMLF-activated human neutrophils (ferricytochrome c reduction); format: cell-based; settings: Neutrophil, mean ± SEM (n = 3), read-out: Superoxide Anion (IC50, concentration necessary for 50% inhibition)
Description: as §2, §3

[Ca^2+]i = fMLF-induced intracellular calcium mobilization in human neutrophils (fluo-3 AM); format: cell-based; settings: Figure 3
Description: as §2
Neutrophils were loaded with fluo-3 AM (2 μM) at 37 °C for 45 min. Cells were preincubated with compounds for 5 min, and then activated by fMLF (100 nM). The change in fluorescence was monitored using a Hitachi F-4500 spectrofluorometer (Tokyo, Japan). The excitation wavelength was 488 nm, and the emission wavelength was 520 nm.

Src (Src family Y416) = assay: Western analysis of fMLF-induced Src phosphorylation in human neutrophils; format: cell-based; settings: fMLF-activated human neutrophils; Figure 2A
Description: as §2
(§4) Neutrophils were pretreated with compounds for 5 min before being stimulated with fMLF at 37 °C. The reaction was stopped by adding 5 × Laemmli’s sample buffer. Proteins derived from whole-cell lysates were separated by SDS-polyacrylamide gel electrophoresis (PAGE) using polyacrylamide gels and blotted onto nitrocellulose membranes. Immunoblotting was performed using the indicated antibodies and horseradish peroxidase (HRP)-conjugated secondary anti-rabbit antibodies (Cell Signaling Technology, Beverly, MA, USA). The immunoreactive bands were visualized by an enhanced chemiluminescence system (Amersham Biosciences, Bucks, UK) and detected by Ultraviolet Product (UVP) imaging system (Upland, CA, USA).

Akt (S473) = assay: Western analysis of fMLF-induced Akt phosphorylation in human neutrophils; format: cell-based; settings: fMLF-activated human neutrophils; Figure 2B
Description: as §2, §4

human neutrophils = assay: Cytotoxicity in human neutrophils by lactate dehydrogenase (LDH) release; format: cell-based
Description: The action mechanisms of 10 in human neutrophils were further investigated. Human neutrophil activations, such as respiratory burst and degranulation, are regulated by Akt and calcium signal pathways. Therefore, calcuim and Akt are considered as therapeutic target for developing anti-inflammatory agents.
as §2

alveolar macrophages [9] = system: alveolar macrophages; set-up: method as in PMID 10188987; settings: cited from earlier work
alveolar macrophages [10] = system: alveolar macrophages; set-up: method as in PMID 10188987; settings: cited from earlier work; remark: listed apart in the source
[11] = system: superoxide anion generation; set-up: method as in PMID 22510297; settings: cited from earlier work

Row | Molecule | viability at 4 μg/mL [1] | viability at 4 μg/mL [2] | viability at 4 μg/mL [3] | IC50 [7] | IC50 [8] | melting point | also measured
1 | CC[C@@]1(O)C(=O)OCc2c1cc1n(c2=O)Cc2cc3ccccc3nc2-1 [CPT, camptothecin, reference compound] | 25% | 33% | 1% |  |  |  | IC50 (SF-268 (CNS)): 0.19 ± 0.006 µM; IC50 (MCF7 (breast)): 0.57 ± 0.03 µM; IC50 (NCI-H460 (lung)): 0.03 ± 0.003 µM; IC50 (Detroit 551): 0.99 ± 0.09 µM
2 | COc1ccc(-c2nc3c4ccccc4c4occc4c3[nH]2)cc1 [Compound 2, 2-(4-methoxyphenyl)furo[3',2':3,4]naphtho[1,2-d]imidazole] |  |  |  |  |  |  | IC50 [4]: 0.047 µM
3 | COc1ccc(OC2=CC(=O)C(=O)c3ccccc32)cc1 [Compound 4, 4-(4-methoxyphenoxy)naphthalene-1,2-dione] |  |  |  |  |  |  | Inhibition of NO released [5]: able to inhibit; Inhibition of TNF-α released [6]: able to inhibit
4 | O=C1c2ccccc2/C(=N/O)c2ccoc21 [Compound 5, (Z)-4-(hydroxyimino)naphtho[2,3-b]furan-9(4H)-one] |  |  |  |  |  |  | IC50 (K562 cell): 0.82 µM
5 | O=C1c2ccccc2C(=O)c2c1ccn2Cc1ccccc1 [Compound 8, 1-Benzyl-1H-benzo[f]indole-4,9-dione] | 103% | 99% | 96% | > 30 µM | 16.1 ± 1.87 µM | 173 to 174 °C | 
6 | Cc1cc2c(n1Cc1ccccc1)C(=O)c1ccccc1C2=O [Compound 9, 1-Benzyl-2-methyl-1H-benzo[f]indole-4,9-dione] | 106% | 105% | 104% | > 30 µM | 14 ± 4.4 µM | 139 to 140 °C | 
7 | O=C1c2ccccc2/C(=N/O)c2ccn(Cc3ccccc3)c21 [Compound 10, (Z)-1-Benzyl-4-(hydroxyimino)-1H-benzo[f]indol-9(4H)-one] | 106% | 110% | 110% | 2.78 µM | 2.74 µM | 202 to 203 °C | fMLF-induced mobilization of [Ca^2+]i ([Ca^2+]i): inhibited; fMLF-induced phosphorylation of Src (Src family Y416) (Src (Src family Y416)): did not alter; fMLF-induced phosphorylation of Akt (S473) (Akt (S473)): inhibited; Cytotoxicity in human neutrophils (LDH release) (human neutrophils; 30 μM, data not shown): showed no cytotoxicity effects
8 | Cc1cc2c(n1Cc1ccccc1)C(=O)c1ccccc1C2=NO [Compound 11, 1-Benzyl-4-(hydroxyimino)-2-methyl-1H-benzo[f]indol-9(4H)-one] | 102% | 104% | 110% | > 30 µM | 7.47 ± 1.39 µM | 259 to 260 °C | 
9 | CC(=O)c1c2c(n(Cc3ccccc3)c1C)C(=O)c1ccccc1C2=O [Compound 12, 3-Acetyl-1-benzyl-2-methyl-1H-benzo[f]indole-4,9-dione] | 115% | 78% | 88% | > 30 µM | > 30 µM | 135 to 136 °C | 
10 | CC(=NO)c1c2c(n(Cc3ccccc3)c1C)C(=O)c1ccccc1C2=O [Compound 13, 1-Benzyl-3-[1-(hydroxyimino)ethyl]-2-methyl-1H-benzo[f]indole-4,9-dione] | 109% | 106% | 111% | 14.7 ± 2.44 µM | 10.5 ± 0.52 µM | 204 to 205 °C | 
11 | CON=C(C)c1c2c(n(Cc3ccccc3)c1C)C(=O)c1ccccc1C2=O [Compound 14, 1-Benzyl-3-[1-(methoxyimino)ethyl]-2-methyl-1H-benzo[f]indole-4,9-dione] | 112% | 104% | 108% | > 30 µM | > 30 µM | 168 to 169 °C | 
12 | CCN(CC)CCNC(=O)c1ccc(/N=C2/c3ccccc3C(=O)c3c2ccn3Cc2ccccc2)cc1 [Compound 15, (Z)-4-(1-benzyl-9-oxo-1H-benzo[f]indol-4(9H)-ylideneamino)-N-[2-(diethylamino)ethyl]benzamide] | 120% | 82% | 31% |  |  | 152 to 153 °C | IC50 (SF-268 (CNS)): 27.4 ± 0.39 µM; IC50 (MCF7 (breast)): 4.98 ± 0.15 µM; IC50 (NCI-H460 (lung)): 3.16 ± 0.13 µM; IC50 (Detroit 551): 7.68 ± 0.58 µM; Cytotoxicity in human neutrophils (LDH release) (human neutrophils; 3, 10 and 30 μM): showed cytotoxicity effects
13 | CCN(CC)CCNC(=O)c1ccc(/N=C2/c3ccccc3C(=O)c3c2cc(C)n3Cc2ccccc2)cc1 [Compound 16, (Z)-4-(1-benzyl-2-methyl-9-oxo-1H-benzo[f]indol-4(9H)-ylideneamino)-N-[2-(diethylamino)ethyl]benzamide] | 106% | 57% | 18% |  | 0.52 ± 0.11 µM | 138 to 139 °C | IC50 (SF-268 (CNS)): 25.8 ± 1.66 µM; Effect of compound alone on elastase release ([7]; human neutrophils, table dash with footnote b = alone induced elastase release): induced NE release of human neutrophils; IC50 (MCF7 (breast)): 4.95 ± 0.21 µM; IC50 (NCI-H460 (lung)): 3.23 ± 0.34 µM; IC50 (Detroit 551): 4.78 ± 0.57 µM
14 | O=c1cc(N2CCOCC2)oc2c(-c3ccccc3)cccc12 [LY294002, reference compound] |  |  |  | 2.21 ± 0.45 µM | 1.36 ± 0.33 µM |  | 
15 | CC1(C)CCC2=C(O1)c1ccccc1C(=O)C2=O [β-LAPA, β-lapachone] |  |  |  |  |  |  | Inhibition of expression of nitric oxide (NO) (alveolar macrophages [9]): able to inhibit; Inhibition of expression of PGE2 (alveolar macrophages [10]): able to inhibit
16 | benzo[a]furo[2,3-c]phenazinecarboxylic acid [Compound 3] |  |  |  |  |  |  | Inhibition of superoxide anion generation [11]: strongly inhibited superoxide anion generation
